Source: patent US10034476B2, “Insecticidal phenyl-or pyridyl-piperdine compounds” (Syngenta Participations AG, priority 2008, dated 2018)
Where a name gives a salt, the structure may show the parent alone.

Columns and labels:
Format in all cases: in vivo
[1] = tested on: Spodoptera littoralis; assay: Spodoptera littoralis (Egyptian cotton leafworm) cotton leaf disc spray test; conditions: foliar, 72 h, 200 ppm spray on cotton leaf discs, L1 larvae, 3 DAT, mortality, feeding behavior, growth regulation
Description: Spodoptera littoralis (Egyptian Cotton Leafworm) Cotton leaf discs were placed on agar in a 24-well microtiter plate and sprayed with test solutions at an application rate of 200 ppm. After drying, the leaf discs were infested with 5 L1 larvae. The samples were checked for mortality, feeding behavior, and growth regulation 3 days after treatment (DAT).

[2] = tested on: Diabrotica balteata; assay: Diabrotica balteata (corn root worm) artificial diet test; conditions: 120 h, 200 ppm (concentration in well 18 ppm), L2 larvae, 5 days, larval mortality, growth regulation
Description: Diabrotica Balteata (Corn Root Worm): A 24-well microtiter plate (MTP) with artificial diet was treated with test solutions at an application rate of 200 ppm (concentration in well 18 ppm) by pipetting. After drying, the MTP's were infested with larvae (L2) (6-10 per well). After an incubation period of 5 days, samples were checked for larval mortality, and growth regulation.

[3] = tested on: Plutella xylostella; assay: Plutella xylostella (diamond back moth) artificial diet test; conditions: 144 h, 200 ppm (concentration in well 18 ppm), L2 larvae, 6 days, larval mortality, growth regulation
Description: Plutella xylostella (Diamond Back Moth): 24-well microtiter plate (MTP) with artificial diet was treated with test solutions at an application rate of 200 ppm (concentration in well 18 ppm) by pipetting. After drying, the MTP's were infested with L2 larvae (7-12 per well). After an incubation period of 6 days, samples were checked for larval mortality and growth regulation.

[4] = tested on: Heliothis virescens; assay: Heliothis virescens (tobacco budworm) egg/artificial diet test; conditions: 96 h, 200 ppm (concentration in well 18 ppm), eggs 0-24 h old on artificial diet, 4 days, egg mortality, larval mortality, growth regulation
Description: Heliothis virescens (Tobacco Budworm): Eggs (0-24 h old) were placed in 24-well microtiter plate on artificial diet and treated with test solutions at an application rate of 200 ppm (concentration in well 18 ppm) by pipetting. After an incubation period of 4 days, samples were checked for egg mortality, larval mortality, and growth regulation.

Measured: pest or weed control at 200 ppm

O=C(Nc1c(F)cc(C(F)(F)F)nc1C1CCN(Cc2ccc(-c3ccc(F)cc3)cc2)CC1)c1ccnc(Cl)c1 [Compound C41, 2-chloro-N-{1′-(4′-fluoro-biphenyl-4-ylmethyl)-4-fluoro-6-trifluoromethyl-1′,2′,3′,4′,5′,6′-hexahydro-[2,4′]bipyridinyl-3-yl}-isonicotinamide]
≥ 80%: all assays above

O=C(Nc1ccc(C(F)(F)F)nc1C1CC[N+]([O-])(Cc2ccc(-c3ccc(F)cc3)cc2)CC1)c1ccnc(Cl)c1 (stereo not drawn) [Compound D1, 2-chloro-N-[1′-(4′-fluoro-biphenyl-4-ylmethyl)-1′-oxy-6-trifluoromethyl-1′,2′,3′,4′,5′,6′-hexahydro-[2,4′]bipyridinyl-3-yl]-isonicotinamide]
≥ 80%: all assays above

O=C(Nc1cc(F)c(F)c(F)c1C1CCN(Cc2ccc(-c3ccc(F)cc3)cc2)CC1)c1ccnc(Cl)c1 [Compound E1, 2-chloro-N-{3,4,5-trifluoro-2-[1-(4′-fluoro-biphenyl-4-ylmethyl)-piperidin-4-yl]-phenyl}-isonicotinamide]
≥ 80%: all assays above

O=C(Nc1ccc(C(F)(F)F)cc1C1CCN(Cc2ccc(-c3ccc(Cl)cc3Cl)cc2)CC1)c1ccnc(Cl)c1 [Compound F1]
≥ 80%: all assays above

O=C(Nc1cc(F)c(F)c(F)c1C1CC[N+]([O-])(Cc2ccc(-c3ccc(F)cc3)cc2)CC1)c1ccnc(Cl)c1 (stereo not drawn) [Compound G1, 2-chloro-N-{3,4,5-trifluoro-2-[1-(4′-fluoro-biphenyl-4-ylmethyl)-piperidin-4-yl]-phenyl}-isonicotinamide N-oxide]
≥ 80%: all assays above

O=C(Nc1ccc(C(F)(F)F)cc1C1CC[N+](O)(Cc2ccc(-c3ccc(F)cc3)cc2)CC1)c1ccnc(Cl)c1 (stereo not drawn) [Compound J1]
≥ 80%: all assays above

O=C(Nc1ccc(C(F)(F)F)nc1C1CC[N+](O)(Cc2ccc(-c3ccc(F)cc3)cc2)CC1)c1ccnc(Cl)c1 (stereo not drawn) [Compound K1, 2-chloro-N-[1′-(4′-fluoro-biphenyl-4-ylmethyl)-1′-oxy-6-trifluoromethyl-1′,2′,3′,4′,5′,6′-hexahydro-[2,4′]bipyridinyl-3-yl]-isonicotinamide 3-hydroxypropyl sulfonate salt]
≥ 80%: all assays above

O=C(Nc1cc(Cl)c(Cl)nc1C1CCN(Cc2ccc(-c3ccc(F)cc3)cc2)CC1)c1ccnc(Cl)c1 [Compound M1, hydrochloride]
≥ 80%: all assays above

O=C(Nc1ccc(C(F)(F)F)nc1C1CCN(Cc2ccc(-c3ccc(F)cc3)cc2)CC1)c1ccnc(Cl)c1 [Compound M4]
≥ 80%: all assays above
